The record followed here is ChEMBL document CHEMBL1124634, “Synthesis and antirhinovirus activity of 6-(dimethylamino)-2-(trifluoromethyl)-9-(substituted benzyl)-9H-purines” (J Med Chem, 1989).

The test system of experiment [1] is Human rhinovirus sp. Description: Antiviral activity against rhinoviral 2 serotype in a plaque inhibition assay using monolayers of M-HeLa cells. It counts as functional, organism-based.
Experiment [2] deals with Human rhinovirus sp. Description: Antiviral activity against rhinoviral 4 serotype in a plaque inhibition assay using monolayers of M-HeLa cells. It counts as functional, organism-based.
In experiment [3] the test system is Human rhinovirus sp. As to the kind of experiment: Antiviral activity against rhinoviral 8 serotype in a plaque inhibition assay using monolayers of M-HeLa cells. It counts as functional, organism-based.
Experiment [4] concerns Human rhinovirus sp. Description: Antiviral activity against rhinoviral 14 serotype in a plaque inhibition assay using monolayers of M-HeLa cells. It counts as functional, organism-based.
For experiment [5], the system named is Human rhinovirus sp. As to the kind of experiment: Antiviral activity against rhinoviral 15 serotype in a plaque inhibition assay using monolayers of M-HeLa cells. Type of experiment: functional, organism-based.
For experiment [6], the system named is Human rhinovirus sp. As to the kind of experiment: Antiviral activity against rhinoviral 16 serotype in a plaque inhibition assay using monolayers of M-HeLa cells. It counts as functional, organism-based.
Experiment [7] deals with Human rhinovirus sp. As to the kind of experiment: Antiviral activity against rhinoviral 12 serotype in a plaque inhibition assay using monolayers of M-HeLa cells. Type of experiment: functional, organism-based.
The subject of experiment [8] is Human rhinovirus sp. As to the kind of experiment: Antiviral activity against rhinoviral-19 serotype in a plaque inhibition assay using monolayers of M-HeLa cells. It counts as functional, organism-based.
Experiment [9] deals with Human rhinovirus sp. Description: Antiviral activity against rhinoviral-1A serotype in a plaque inhibition assay using monolayers of M-HeLa cells. Type of experiment: functional, organism-based.
Experiment [10] relates to Human rhinovirus sp. Description: Antiviral activity against rhinoviral-1B serotype in a plaque inhibition assay using monolayers of M-HeLa cells. Type of experiment: functional, organism-based.
The subject of experiment [11] is Human rhinovirus sp. Description: Percent inhibitory activity at 8 uM against rhinoviral 13 serotype in a plaque inhibition assay using monolayers of M-HeLa cells. Type of experiment: functional.
Experiment [12] in a line: Percent inhibitory activity at 8 uM against rhinoviral 18 serotype in a plaque inhibition assay using monolayers of M-HeLa cells. It counts as functional, Homo sapiens.
Experiment [13] has as its system Human rhinovirus sp. Description: Percent inhibitory activity at 8 uM against rhinoviral 21 serotype in a plaque inhibition assay using monolayers of M-HeLa cells. It counts as functional.
In experiment [14] the test system is Human rhinovirus sp. As to the kind of experiment: Percent inhibitory activity at 8 uM against rhinoviral 29 serotype in a plaque inhibition assay using monolayers of M-HeLa cells. It counts as functional.
Experiment [15] has as its system Human rhinovirus sp. Description: Percent inhibitory activity at 8 uM against rhinoviral 3 serotype in a plaque inhibition assay using monolayers of M-HeLa cells. It counts as functional.
The subject of experiment [16] is Human rhinovirus sp. Description: Antiviral activity against rhinoviral 5 serotype in a plaque inhibition assay using monolayers of M-HeLa cells. It counts as functional, organism-based.
Experiment [17] deals with Human rhinovirus sp. As to the kind of experiment: (§1) Antiviral activity against rhinoviral 9 serotype in a plaque inhibition assay using monolayers of M-HeLa cells. It counts as functional, organism-based.
Experiment [18] concerns Human rhinovirus sp. Description: Percent inhibitory activity at 8 uM against rhinoviral 30 serotype in a plaque inhibition assay using monolayers of M-HeLa cells. It counts as functional.
The test system of experiment [19] is Human rhinovirus sp. Description: Antiviral activity against rhinoviral 29 serotype in a plaque inhibition assay using monolayers of M-HeLa cells. It counts as functional, organism-based.
In experiment [20] the test system is Human rhinovirus sp. Description: Antiviral activity against rhinoviral 3 serotype in a plaque inhibition assay using monolayers of M-HeLa cells. Type of experiment: functional, organism-based.
Experiment [21] is described as follows: as §1. Type of experiment: functional, cell-based. The conditions noted are these: Homo sapiens.
Experiment [22] in a line: Antiviral activity against rhinoviral 13 serotype in a plaque inhibition assay using monolayers of M-HeLa cells. Type of experiment: functional, cell-based. As to conditions: Homo sapiens.
For experiment [23], the system named is Human rhinovirus sp. Description: Percent inhibitory activity at 8 uM against rhinoviral 14 serotype in a plaque inhibition assay using monolayers of M-HeLa cells. Type of experiment: functional.
Experiment [24] relates to Human rhinovirus sp. Description: Percent inhibitory activity at 8 uM against rhinoviral 15 serotype in a plaque inhibition assay using monolayers of M-HeLa cells. It counts as functional.
The test system of experiment [25] is Human rhinovirus sp. Description: Percent inhibitory activity at 8 uM against rhinoviral 5 serotype in a plaque inhibition assay using monolayers of M-HeLa cells. Type of experiment: functional.
Experiment [26] in a line: Percent inhibitory activity at 8 uM against rhinoviral 8 serotype in a plaque inhibition assay using monolayers of M-HeLa cells. It counts as functional, Homo sapiens.
Experiment [27] in a line: Percent inhibitory activity at 8 uM against rhinoviral-18 serotype in a plaque inhibition assay using monolayers of M-HeLa cells. It counts as functional, Homo sapiens.
Experiment [28] in a line: Percent inhibitory activity at 8 uM against rhinoviral 2 serotype in a plaque inhibition assay using monolayers of M-HeLa cells. It counts as functional, Homo sapiens.
For experiment [29], the system named is Human rhinovirus sp. As to the kind of experiment: Antiviral activity against rhinoviral 21 serotype in a plaque inhibition assay using monolayers of M-HeLa cells. Type of experiment: functional, organism-based.
For experiment [30], the system named is Human rhinovirus sp. As to the kind of experiment: Antiviral activity against rhinoviral 31 serotype in a plaque inhibition assay using monolayers of M-HeLa cells. Type of experiment: functional, organism-based.
Experiment [31] relates to Human rhinovirus sp. Description: Antiviral activity against rhinoviral 30 serotype in a plaque inhibition assay using monolayers of M-HeLa cells. Type of experiment: functional, organism-based.
Experiment [32] has as its system Human rhinovirus sp. Description: Percent inhibitory activity at 8 uM against rhinoviral 19s erotype in a plaque inhibition assay using monolayers of M-HeLa cells. It counts as functional.
Experiment [33] relates to Human rhinovirus sp. As to the kind of experiment: Percent inhibitory activity at 8 uM against rhinoviral 31 serotype in a plaque inhibition assay using monolayers of M-HeLa cells. It counts as functional.
Experiment [34] relates to Human rhinovirus sp. As to the kind of experiment: Percent inhibitory activity at 8 uM against rhinoviral 4 serotype in a plaque inhibition assay using monolayers of M-HeLa cells. Type of experiment: functional.
For experiment [35], the system named is Human rhinovirus sp. As to the kind of experiment: Antiviral activity against rhinoviral 18 serotype in a plaque inhibition assay using monolayers of M-HeLa cells. It counts as functional, organism-based.
Experiment [36] relates to Human rhinovirus sp. Description: Antiviral activity against rhinoviral 19 serotype in a plaque inhibition assay using monolayers of M-HeLa cells. Type of experiment: functional, organism-based.
A short description of experiment [37]: Percent inhibitory activity at 4 uM against rhinoviral 2 serotype in a plaque inhibition assay using monolayers of M-HeLa cells. It counts as functional, Homo sapiens.

Where only a bound is given, the exact number is not on record here.

For orientation: IC50 means the point on the concentration scale where inhibition reaches its midpoint. Lower therefore signals inhibition by little substance. With `COc1ccc(Cn2cnc3c(N(C)C)nc(C(F)(F)F)nc32)cc1C`, the IC50 is 8 µM in the experiment on Human rhinovirus sp. [1]; 5.5 µM with Human rhinovirus sp. [2]; more than 8 µM in the experiment with Human rhinovirus sp. [3]; 7.5 µM in the experiment on Human rhinovirus sp. [4]; 9 µM in the experiment on Human rhinovirus sp. [5]; 1.9 µM in the experiment with Human rhinovirus sp. [6]. Besides, the IC50 is 4.1 µM in the experiment on Human rhinovirus sp. [7]; 8.6 µM in the experiment with Human rhinovirus sp. [8]; 2.6 µM in the experiment on Human rhinovirus sp. [9]; 0.2 µM with Human rhinovirus sp. [10]; more than 8 µM in the experiment on Human rhinovirus sp. [16]; 1.3 µM in the experiment with Human rhinovirus sp. [17]. In addition, the Inhibition in the experiment with Human rhinovirus sp. [11] worked out at 12%; in experiment [12] it was 35 µM; in the experiment on Human rhinovirus sp. [13], 16%; with Human rhinovirus sp. [14], 27%; in the experiment with Human rhinovirus sp. [15], 28%; in the experiment with Human rhinovirus sp. [18], 20%.

`CN(C)c1nc(C(F)(F)F)nc2c1ncn2Cc1ccc(S(C)(=O)=O)cc1`: the IC50 in the experiment on Human rhinovirus sp. [19] was 3 µM; in the experiment on Human rhinovirus sp. [20], 4.7 µM; in the experiment on Human rhinovirus sp. [2], 8.8 µM; in experiment [21], 3.7 µM; in experiment [22] it was 4.2 µM; in the experiment on Human rhinovirus sp. [6] it was 2.3 µM. For the same molecule, the IC50 in the experiment on Human rhinovirus sp. [7] is 6 µM; in the experiment with Human rhinovirus sp. [8], 9 µM; in the experiment with Human rhinovirus sp. [9] it was 2.3 µM; in the experiment with Human rhinovirus sp. [10], 0.5 µM; in the experiment with Human rhinovirus sp. [29], 9 µM; with Human rhinovirus sp. [30] it was 4.3 µM. The Inhibition in the experiment on Human rhinovirus sp. [23] worked out at 16%; with Human rhinovirus sp. [24] it was 47%; in the experiment on Human rhinovirus sp. [25] it was 40%; in experiment [26] it was 36%; in experiment [27], 29%; in experiment [28] it was 36%. Further, the Inhibition with Human rhinovirus sp. [18] came to 32%.

`CN(C)c1nc(C(F)(F)F)nc2c1ncn2Cc1ccc(Cl)cc1Cl`: the IC50 with Human rhinovirus sp. [1] worked out at 6.9 µM; in the experiment on Human rhinovirus sp. [31] it was 11 µM; in the experiment on Human rhinovirus sp. [3], 8.5 µM; in the experiment on Human rhinovirus sp. [6], 0.85 µM; with Human rhinovirus sp. [7], 11 µM; in the experiment on Human rhinovirus sp. [9], 0.58 µM. Besides, the values for the half-maximal inhibitory concentration (IC50) in the experiment on Human rhinovirus sp. [10], in the experiment with Human rhinovirus sp. [16] and in the experiment with Human rhinovirus sp. [17] were 0.12 µM, more than 8 µM and 0.93 µM, respectively. The Inhibition was 20% with Human rhinovirus sp. [11]; 35% with Human rhinovirus sp. [23]; 10% with Human rhinovirus sp. [24]; 32 µM in experiment [12]; 40% with Human rhinovirus sp. [32]; 30% with Human rhinovirus sp. [13]. Also, the Inhibition stood at 15% in the experiment with Human rhinovirus sp. [14], 28% with Human rhinovirus sp. [33], 17% with Human rhinovirus sp. [15] and 25% in the experiment with Human rhinovirus sp. [34].

For `CN(C)c1nc(C(F)(F)F)nc2c1ncn2Cc1ccc(C(F)(F)F)cc1`, the IC50 with Human rhinovirus sp. [35] was 6.6 µM; in the experiment on Human rhinovirus sp. [36], 5.2 µM; in the experiment with Human rhinovirus sp. [19] it was 7.2 µM; in the experiment on Human rhinovirus sp. [2] it was 6 µM; in the experiment with Human rhinovirus sp. [3], more than 8 µM; with Human rhinovirus sp. [4] it was 7 µM. In addition, the IC50 in the experiment with Human rhinovirus sp. [5] was 4.2 µM; in the experiment on Human rhinovirus sp. [6], 1.2 µM; in the experiment on Human rhinovirus sp. [7] it was 5.2 µM; in the experiment on Human rhinovirus sp. [9] it was 0.91 µM; in the experiment with Human rhinovirus sp. [10], 0.11 µM; in the experiment on Human rhinovirus sp. [16], more than 8 µM. The IC50 amounted to 8.2 µM in the experiment with Human rhinovirus sp. [29], 2.2 µM in the experiment with Human rhinovirus sp. [17] and 6 µM with Human rhinovirus sp. [30]. Moreover, the Inhibition in experiment [37] was found to be 23 µM; in the experiment on Human rhinovirus sp. [11], 22%; in the experiment on Human rhinovirus sp. [15] it was 44%; in the experiment with Human rhinovirus sp. [18], 40%.
